Data taken from patent US9532961B2, “Method and kit for administering γ-glutamyl-D-cysteine for the prevention of reperfusion injury following ischemic stroke” (Rosalind Franklin University of Medicine and Science, priority 2005, dated 2017).
Entries after “also recorded” stand apart in the source; their conditions may differ.

Legend:
[1] = test system: cultured bovine blood-brain barrier endothelial cells; assay: Intracellular sodium (sodium green fluorescence) in cultured blood-brain barrier cells under simulated ischemia-reperfusion; format: cell-based; conditions: 100 μM; ischemia 90 mins, reperfusion 30 mins
Experimental: FIG. 3 is a bar graph of data showing that when cerebral capillary endothelial cells are exposed to ischemic conditions, intracellular sodium concentration increases and remains elevated during reperfusion; the elevation in intracellular sodium is prevented by pharmacological inhibition of the Na/H antiporter. Cultured bovine blood-brain barrier cells were exposed to conditions simulating ischemia and reperfusion, by incubating in 95% N2/5% CO2 without glucose (90 mins) at pH 6.8, followed by room air/5% CO2 with 5.6 mM glucose (30 mins) at pH 7.4, respectively. […] The rise in intracellular sodium observed during reperfusion was prevented by inhibiting Na/H exchange (100 μM dimethylamiloride, DMA). *P<0.05. Values are mean±SD. […] Intracellular sodium was measured with fluorescent imaging, using sodium green. […]
Cultured bovine blood-brain barrier endothelial cells were exposed to conditions simulating ischemia and reperfusion as described in Example 2. Sodium fluorescence is measured in cultured bovine blood-brain barrier endothelial cells under the following conditions: 1) control (120 minutes), 2) simulated ischemia (120 minutes), 3) simulated ischemia (90 minutes) followed by simulated reperfusion (30 minutes), 4) simulated ischemia/reperfusion (90/30 minutes), in the presence of an inhibitor (dimethylamiloride, 100 μM) of Na/H exchange. […]

[2] = test system: cultured bovine blood-brain barrier endothelial cells; assay: Intracellular calcium (Fluo-4 fluorescence) in cultured blood-brain barrier cells under simulated ischemia-reperfusion; format: cell-based; conditions: 100 μM DMA (Na/H antiport inhibition), listed as DMA
Experimental: FIG. 4 is a bar graph of data showing that when cerebral capillary endothelial cells are exposed to ischemic conditions, intracellular calcium concentration increases and remains elevated during reperfusion; the elevation in intracellular calcium is prevented by pharmacological inhibition of the Na/H antiporter. Cultured bovine blood-brain barrier cells were treated as described above (FIG. 2). […] The rise in intracellular calcium observed during reperfusion was prevented by inhibiting Na/H antiport (100 μM DMA). *P<0.05 compared to control. +P<0.05 compared to reperfusion. Values are mean±SD. Intracellular calcium was measured with fluorescent imaging, using Fluo-4.
FIG. 5 is a bar graph of data showing that when cerebral capillary endothelial cells are exposed to ischemic conditions, intracellular calcium concentration increases and remains elevated during reperfusion; the elevation in intracellular calcium is prevented by pharmacological inhibition of reverse movement of the Na/Ca exchanger. Cultured bovine blood-brain barrier cells were treated as described above (FIG. 2). […] The rise in intracellular calcium observed during reperfusion was prevented by inhibiting reverse movement of Na/Ca exchange (20 μM KB-R7943). *P<0.05 compared to control. +P<0.05 compared to reperfusion. Values are mean±SD. Intracellular calcium was measured with fluorescent imaging, using Fluo-4. […]

[3] = test system: caspase 3 activity in cultured bovine blood-brain barrier endothelial cells; assay: Caspase 3 activity in cultured blood-brain barrier cells under simulated ischemia-reperfusion; format: cell-based; conditions: 100 μM; 30 mins ischemia, 24 hours reperfusion; P<0.05 from I/Rep
From the text: FIG. 6 is a bar graph of data showing that ischemia followed by reperfusion of cultured cerebral capillary endothelial cells results in an increase of caspase 3 activity that is inhibited by an inhibitor of Na/H exchange. Caspase 3 activity is expressed in cultured blood-brain barrier cells exposed to conditions simulating ischemia-reperfusion. […] I/Rep is ischemia plus reperfusion; I/R Na inh is ischemia-reperfusion with inhibitor; I/R Cp inh is ischemia-reperfusion with a specific caspase inhibitor. Values are mean±SD for 3 observations.
Cultured blood-brain barrier cells can be exposed to conditions simulating ischemia and reperfusion, by a method similar to that reported in the literature (25). The precise composition of the incubation medium varies, depending upon the experimental protocols. In general, however, cells are incubated at 37° C. first in an ischemic medium (without glucose, pH 6.8) equilibrated with an atmosphere of 95% N2 and 5% CO2, followed by simulated reperfusion in a control medium (5.6 mM glucose, pH 7.4) equilibrated with room air and 5% CO2. […]
Caspase 3 activity was measured in cultured bovine blood-brain barrier endothelial cells under control conditions (24.5 hours), simulated ischemia (24.5 hours), or ischemia (0.5 hours) followed by reperfusion (24 hours, I/Rep) as described in Example 2. […]

[4] = test system: cultured blood-brain barrier endothelial cells; assay: Lactate dehydrogenase (LDH) release from cultured blood-brain barrier endothelial cells under ischemia and reperfusion; format: cell-based, bovine; conditions: 1 mM; ischemia 1.5 hrs, reperfusion 3.0 hrs; P<0.05
From the text: FIG. 7 is a bar graph of data showing that the antioxidant gamma-glutamyl cysteine (γ-Glu-Cys) inhibits cell damage to cerebral capillary endothelial cells cultured under conditions of ischemia and reperfusion.
Cultured blood-brain barrier cells can be used as an in vitro cellular model to confirm that Na/Ca exchange may operate in the reverse direction under conditions simulating reperfusion, following transient ischemia. Cerebral capillary endothelial cells are isolated from bovine brain by the method of Meresse et al. (42), or purchased from Cell Systems Corporation (Kirkland, Wash.). Cells are grown and maintained (up to passage 5) on collagen type I- and fibronectin-coated tissue culture flasks in Eagle's minimal essential medium supplemented with 10% fetal bovine serum (54, 62). To form a polarized endothelium, cells are seeded on cluster plate inserts and incubated in the presence of an astrocyte conditioned medium supplemented with cAMP, as previously described (4, 54). […]
Cultured blood-brain barrier endothelial cells were incubated under conditions of ischemia (1.5 hours) followed by reperfusion (3.0 hours), in the presence and absence of γ-glutamyl cysteine (γ-Glu-Cys). Cellular damage was detected by measuring release of lactate dehydrogenase (LDH) into the incubation medium, following treatment. […]

in vitro = in vitro ADME; conditions: rat
Experimental: Separate peaks representing the intact peptide and its metabolites are plotted as a function of time. The area under the curve for selected peaks may be measured and compared to appropriate standards to quantify the concentration of γ-Glu-Cys and its metabolites.
Loss of γ-Glu-Cys from the incubation medium, and the appearance of Cys and oxidized γ-Glu-Cys were quantified using HPLC to measure degradation, hydrolysis, and oxidation respectively. The ½-time for degradation of γ-Glu-Cys is 11.3±1.2 mins. Values are mean±SD. N=3 separate experiments.
Loss of γ-Glu-D-Cys from the incubation medium, and the appearance of D-Cys and oxidized γ-Glu-D-Cys were quantified using HPLC to measure degradation, hydrolysis, and oxidation respectively. Values are mean±SD. N=3 separate experiments.
Comparing the initial rates of degradation confirmed that γ-Glu-D-Cys is degraded more slowly (0.12±0.02 vs 0.22±0.02 mM/min, P=0.006). Values are mean±SD. N=3 separate experiments.
Values are mean±SD. N=3 separate experiments. * indicates significant difference at P<0.05.
As a measure of stability, the initial velocities of degradation for γ-Glu-Cys and γ-Glu-D-Cys were compared and found to be 0.22±0.03 vs. 0.12±0.02 (mM/min), respectively.
FIG. 11 is a graph showing the temporal comparison of degradation, oxidation and hydrolysis of γ-Glu-Cys. FIG. 12 is a graph showing the temporal comparison of degradation, oxidation, and hydrolysis of the analog γ-Glu-D-Cys. FIG. 13 is a graph comparing the degradation of γ-Glu-Cys and γ-Glu-D-Cys, as measured by the loss of intact peptide as a function of time of incubation. FIG. 14 is a graph comparing the hydrolysis of γ-Glu-Cys and γ-Glu-D-Cys, by appearance of cysteine and D-cysteine respectively, as a function of time. Mean±SE; * indicates significant difference at P<0.05. FIG. 15 is a graph comparing the oxidation of γ-Glu-Cys and γ-Glu-D-Cys, by appearance of oxidized γ-Glu-Cys and oxidized γ-Glu-D-Cys respectively, as a function of time. Mean±SE. * indicates P<0.05.

[5] = Oxiselect Total Antioxidant Capacity Assay in rat serum (1-9%) in Tris Buffer; conditions: 0.0625, 0.125, 0.3125 and 0.625 mM, averaged
Experimental: (§1) FIGS. 16a and 16b indicate that the antioxidant capacities of γ-Glu-Cys and γ-Glu-D-Cys are the same using an in vitro assay. Antioxidant capacities were measured with the Oxiselect Total Antioxidant Capacity Assay Kit, using uric acid as a standard. […] Values are mean±SE. N=3 separate experiments for the 0.78, 1.56, and 3.13 mM concentrations. N=2 separate experiments for the 0.39 mM concentration. *P=0.047.

[6] = Oxiselect Total Antioxidant Capacity Assay in human plasma (90-99%)
Experimental: as §1

Human red blood cells = assay: Spontaneous hemolysis of human red blood cells (hemoglobin release at 540 nm); format: cell-based; conditions: 37° C.; for difference in cytoprotective effect, γ-Glu-Cys vs γ-Glu-D-Cys: 1 mM each; for difference in cytoprotective effect, γ-Glu-Cys vs γ-Glu-D-Cys / toxicity (increase of hemolysis): 190 minutes; for spontaneous hemolysis / toxicity (increase of hemolysis): 1 mM; for spontaneous hemolysis: 5% red blood cells, phosphate buffer pH 7.4, 190 minutes
Experimental: Human red blood cells (5%) were incubated in isotonic phosphate buffer, pH 7.4 for 190 minutes at 37° C. in the presence or absence of γ-Glu-Cys and γ-Glu-D-Cys, and spontaneous hemolysis was quantified by measuring hemoglobin release spectrophotometrically at 540 nm. […] Values are mean±SE for 4 observations.

[7] = 0.39 mM in human plasma (90-99%), N=2, P=0.047
[8] = 0.78, 1.56, and 3.13 mM in human plasma (90-99%), N=3

| Compound | rise in intracellular sodium observed during reperfusion [1] | rise in intracellular calcium observed during reperfusion [2] | increase in caspase 3 activity [3] | LDH release (cellular damage) [4] | intactness in serum for 1 minute (in vitro; 1 min, 6.25 mM) | half-life at 6.25 mM (in vitro; serum) | antioxidant capacity (uric acid equivalents), γ-Glu-Cys vs γ-Glu-D-Cys [5] | antioxidant capacity, γ-Glu-Cys vs γ-Glu-D-Cys [6, 7] | antioxidant capacity, γ-Glu-Cys vs γ-Glu-D-Cys [6, 8] | difference in cytoprotective effect, γ-Glu-Cys vs γ-Glu-D-Cys (Human red blood cells) | spontaneous hemolysis (Human red blood cells) | toxicity (increase of hemolysis) (Human red blood cells) | initial rate (velocity) of degradation (in vitro; 6.25 mM) |
| --- | --- | --- | --- | --- | --- | --- | --- | --- | --- | --- | --- | --- | --- |
| CN(C)c1nc(N)c(C(=O)N=C(N)N)nc1Cl [dimethylamiloride] | prevented; also recorded: inhibits the rise in intracellular sodium | prevented; also recorded: inhibits the rise in intracellular calcium | inhibited | – | – | – | – | – | – | – | – | – | – |
| N[C@@H](CCC(=O)N[C@@H](CS)C(=O)O)C(=O)O [γ-Glu-Cys, γ-glutamyl cysteine] | – | – | – | reduced LDH release; also recorded: cellular damage was significantly reduced | remains primarily intact for 1 minute in serum | 11.3 ± 1.2 min | not to be significantly different from each other | marginal difference | a significant difference was not detected | no significant difference in their cytoprotective effect | significantly inhibit spontaneous hemolysis | not toxic under the experimental conditions | – |
| N[C@@H](CCC(=O)N[C@H](CS)C(=O)O)C(=O)O [γ-Glu-D-Cys, γ-glutamyl-D-cysteine] | – | – | – | – | – | – | not to be significantly different from each other | marginal difference | a significant difference was not detected | no significant difference in their cytoprotective effect | significantly inhibit spontaneous hemolysis | not toxic under the experimental conditions | 0.12 ± 0.02 mM/min |
